Values belong to the compound of their own block, whether it stands above or below them.
What was measured:
C2C12 myotubes = test: LC, TNF-α and 1,25(OH)2VD treatment of myotubes (GCLC-KD, PGC-1α KD); assay type: cell-based, mouse
Experimental: (§1) Cell culture and treatment: FL83B mouse hepatocytes (ATCC®, Manassas, Va.) were cultured and maintained in F-12K complete medium. Mouse C2C12 myoblasts were cultured at 37° C. in an atmosphere of 5% CO2 in growth medium (GM) consisting of Dulbecco's modified Eagle's medium (DMEM) supplemented with heat-inactivated 10% fetal bovine serum and antibiotics (penicillin and streptomycin). […] The control siRNA, a scrambled nonspecific RNA duplex that shares no sequence homology with any of the genes, was used as a negative control.
(§2) Cells were transiently transfected with 0-100 nM siRNA complex using Lipofectamine™2000 transfection reagent (Invitrogen, Carlsbad, Calif.). […] TNF-α (0-250 μg/mL) was exposed for 6 h to differentiated myotubes.
(§3) Analysis of mRNA expression using quantitative polymerase chain reaction: Total RNA was extracted from cells or tissue using the TRIzol reagent (Life Technologies) following the manufacturer's instructions. The quality and quantity of the extracted RNA were determined on a NanoDrop spectrophotometer (Thermo Scientific). First-strand complementary DNA (cDNA) synthesis was performed using a commercially available High Capacity RNA-To-cDNA kit (Life Technologies) in a final reaction volume of 20 μL. Amplification of cDNA was performed on a 7900HT Real Time polymerase chain reaction (PCR) system (Applied Biosystems). PCR conditions were 2 min at 50° C., 10 min at 95° C., 40 cycles of 95° C. for 15 s, and then 60° C. for 60 s. Glyceraldehyde-3-phosphate dehydrogenase (GAPDH) was used as a housekeeping gene to normalize threshold cycle (CT) values.
(§4) Levels of GSH in plasma, tissues, and cultured cells were determined using HPLC. This assay determines total GSH status. Cell viability was determined using the Alamar Blue method (Alamar Biosciences, Sacramento, Calif.). Oxidative stress was assessed by the quantification of protein carbonyls and MDA using Protein Carbonyl Colorimetric and TBARS Assay Kits, respectively (Cayman Chemical, Ann Arbor, Mich.). Measurements of HbA1c, Complete Blood Count, glucose, and calcium were done at the clinical chemistry laboratories of LSUHSC-Shreveport. Due to limited amount of blood collected from each mouse, we borrowed diluents from the clinical laboratory and diluted the blood before taking it to the clinical laboratory, which reduced the amount of blood required for clinical tests. All chemicals were purchased from Sigma Chemical Co. (St. Louis, Mo.) unless otherwise mentioned.

FL83B mouse hepatocytes = test: LC and cholecalciferol treatment of hepatocytes (GCLC-KD, VDR-KD); assay type: cell-based
Experimental: as §1, §2, §3, §4

[1] = tested on: mice maintained on a VD-deficient HFD; test: Supplementation of mice on VD-deficient HFD: blood biomarkers; assay type: in vivo, mouse; conditions: VD 67 IU/kg BW, vs OO (vehicle) control
Experimental: Effect of supplementation with VD along with LC on plasma levels of GSH, 25(OH)VD, and IR, and on GSH and VD regulatory genes in liver and on GSH and glucose metabolism genes in muscle: Beginning at 5 weeks of age, male C57BL/6J mice were fed and maintained on a VD-deficient HFD and water ad libitum for 16 weeks. Mice were gavaged daily for the last 8 weeks with saline, olive oil (OO), LC (5 mg/kg BW), VD (67 IU/kg BW), or LC+VD to investigate whether co-supplementation with GSH precursor has a better effect on blood levels of 25(OH)VD compared with levels achieved using VD alone. VD was dissolved in OO and one group of mice was also gavaged with OO (vehicle) alone.
Animal studies. Male C57BL/6J mice (5 weeks old, 20-24 g) were purchased from The Jackson Laboratory and acclimatized in the institutional animal house for 1 week. Mice were divided into various groups by computer-generated randomization and then housed and labeled in individual cages. They were fasted overnight and then weighed. Blood glucose was assessed by tail prick using an Accu-Chek glucometer (Boehringer Mannheim Corp., Indianapolis, Ind.). BW and blood glucose were monitored weekly. Control animals were fed a normal diet (lower in fat), while animals in the HFD group were fed HFD for 16 weeks. For studies with VD-deficient animals, the mice were maintained on a VD-deficient HFD for 16 weeks.
In addition, two groups of mice maintained on the VD-deficient HFD were also simultaneously supplemented by oral gavage with either water or the same dose of the vehicle used for dissolving cholecalciferol (OO) (FIG. 5). The animals were maintained under standard housing conditions at 22° C. 2° C. with 12/12-h light/dark cycles. Normal diet, HFD, and VD-deficient HFD were purchased from The Jackson Laboratory. The amount of food intake was monitored at 12 and 16 weeks into the treatment period to assess consumption. At the end of 16 weeks, the animals were fasted overnight and then euthanized for analysis by exposure to isoflurane (Webster Veterinary Supply, Inc., Devens, Mass.). Blood was collected via heart puncture with a 19^1/2-gauge needle into heparinized Vacutainer tubes. Plasma was isolated after centrifuging the blood in a 4° C. centrifuge at 3000 rpm for 10 min. The livers were perfused with cold saline to free them of residual blood. Liver and gastrocnemius muscle were collected immediately, weighed, quickly diced, and frozen in liquid nitrogen at −80° C.
Dose justification for LC and vitamin D: While lc can be taken as a supplement, it is also formed in the body from methionine. An adult ingests about 500 mg LC from dietary sources, assuming that an average protein intake is 90 g/day and that LC is about 0.6% of total protein. Similarly, taking into account daily dietary intake and diet composition, mice consume 3-5 mg LC/kg BW. The LC/methionine content of protein varies with the source of the protein. The LC dose used in our studies, 5 mg/kg BW, is theoretically a supplementation onefold to twofold that of the LC ordinarily consumed by the mice, which could be considered both modest and safe. […]
25(OH)VD, 1,25(OH)2VD, VDBP, GSH, TNF-α, PTH, insulin, glucose, protein carbonyl, and MDA assays: Plasma levels of 25(OH) vitamin D were determined using an ELISA kit (Calbiotech, Spring Valley, Calif.) and 1,25(OH)2 vitamin D using another ELISA kit (My BioSource, San Diego, Calif.). Plasma VDBP quantification was carried out using a kit purchased from ALPCO Diagnostics (Salem, N.H.). […]

[2] = LC alone, compared with control VDR-KD cells
[3] = oral gavage 8 weeks, LC 5 mg/kg BW

Compound: C=C1/C(=C\C=C2/CCC[C@]3(C)[C@@H]([C@H](C)CCCC(C)(C)O)CC[C@@H]23)C[C@@H](O)C[C@@H]1O [1,25(OH)2VD, 1alpha,25-dihydroxyvitamin D3]
- upregulation of NRF2 and GLUT-4 (C2C12 myotubes; PGC-1α KD myotubes): absent

- GSH levels (C2C12 myotubes; LC 300 μM, 6 h): increases
- TNF-α levels (C2C12 myotubes; LC 300 μM, 6 h, GCLC-normal and GCLC-KD myotubes): decrease
- CYP27A1 gene upregulation (FL83B mouse hepatocytes; [2]): not
- VDBP gene expression (FL83B mouse hepatocytes; [2]): upregulation
- oxidation of both proteins and lipids (FL83B mouse hepatocytes; LC, GSH-normal and GSH-deficient hepatocytes): reduced
Compound: N[C@@H](CS)C(=O)O [LC, l-cysteine]

Compound: C=C1CC[C@H](O)C/C1=C/C=C1\CCC[C@]2(C)[C@@H]([C@H](C)CCCC(C)C)CC[C@@H]12 [VD, cholecalciferol]
- IR (HOMA-IR) in blood [1, 3]: did not show effect
- blood HbA1c [1, 3]: did not show effect
- blood level of TNF-α [1, 3]: did not show effect
- blood level of VDBP ([1]; oral gavage 8 weeks): did not show effect
- blood level of GSH ([1]; oral gavage last 8 weeks of 16 weeks VD-deficient HFD, LC 5 mg/kg BW): did not show effect
- effect on VD regulatory genes (mRNA) (FL83B mouse hepatocytes; cholecalciferol 10 nM, 22 h): stimulatory effect

- VDR/PGC-1α/GLUT-4 gene expression (C2C12 myotubes; exogenous TNF-α, 6 h): downregulates
Compound: TNF-α

Reference: patent US20240122946A9, “METHODS AND COMPOSITIONS FOR TREATING 25-HYDROXYVITAMIN D DEFICIENCY” (Board of Supervisors of Louisiana State University and …, priority 2019, published 2024)
